Reference: ChEMBL document CHEMBL1649270, “ST-246 inhibits in vivo poxvirus dissemination, virus shedding, and systemic disease manifestation” (2009)
Calls of active or inactive are those of the source. No cut-off for these calls is given here.

Key:
Vaccinia virus WR [1] = assay: Antiviral activity against Vaccinia virus WR ATCC VR-1354 infected through percutaneous route in BALB/c mouse assessed as reduction of viral load in brain at 100 mg/kg, po qd measured after 5 days postinfection by RT-PCR analysis relative to control; format: functional
Vaccinia virus WR [2] = assay: Antiviral activity against Vaccinia virus WR ATCC VR-1354 infected through percutaneous route in BALB/c mouse assessed as reduction of viral load in brain at 100 mg/kg, po qd measured after 7 days postinfection by RT-PCR analysis relative to control; format: functional, organism-based; set-up: dose 100 mg/kg
Vaccinia virus WR [3] = assay: Antiviral activity against Vaccinia virus WR ATCC VR-1354 infected through intravenous route in BALB/c mouse assessed as protection against virus-induced satellite lesion formation on tails at 100 mg/kg, po qd measured after 6 days postinfection; format: functional, organism-based; set-up: dose 100 mg/kg
Vaccinia virus WR [4] = assay: Antiviral activity against Vaccinia virus WR ATCC VR-1354 infected through percutaneous route in BALB/c mouse assessed as inhibition of virus dissemination in liver at 100 mg/kg, po qd for 3 to 14 days by RT-PCR analysis; format: functional, organism-based; set-up: dose 100 mg/kg
Vaccinia virus WR [5] = assay: Antiviral activity against Vaccinia virus WR ATCC VR-1354 infected through intraperitoneal route in BALB/c mouse assessed as protection against virus-induced satellite lesion formation on tails at 100 mg/kg, po qd measured after 6 days postinfection; format: functional, organism-based; set-up: dose 100 mg/kg
Vaccinia virus WR [6] = assay: Antiviral activity against Vaccinia virus WR ATCC VR-1354 infected through percutaneous route in BALB/c mouse assessed as protection against virus-induced death at 100 mg/kg, po qd administered 4 days after postinfection measured on day 6; format: functional, organism-based; set-up: dose 100 mg/kg
Vaccinia virus WR [7] = assay: Antiviral activity against Vaccinia virus WR ATCC VR-1354 infected through percutaneous route in BALB/c mouse assessed as inhibition of virus dissemination in spleen at 100 mg/kg, po qd for 3 days by RT-PCR analysis relative to control; format: functional
Vaccinia virus WR [8] = assay: Antiviral activity against Vaccinia virus WR ATCC VR-1354 infected through percutaneous route in BALB/c mouse assessed as inhibition of virus dissemination in brain at 100 mg/kg, po qd for 1 day by RT-PCR analysis; format: functional, organism-based; set-up: dose 100 mg/kg

**Q.** How did the “fold change (FC)” value (Vaccinia virus WR [1]) turn out when `O=C(NN1C(=O)[C@@H]2[C@@H]3C=C[C@@H]([C@H]4C[C@@H]34)[C@@H]2C1=O)c1ccc(C(F)(F)F)cc1` [TECOVIRIMAT] was run?
**A.** 13

**Q.** And the Activity (Vaccinia virus WR [2])?
**A.** Active

**Q.** What about the Activity (Vaccinia virus WR [3]) of the same molecule?
**A.** Active

**Q.** And the Activity (Vaccinia virus WR [4])?
**A.** Active

**Q.** And the Activity (Vaccinia virus WR [5])?
**A.** Active

**Q.** And the Activity (Vaccinia virus WR [6])?
**A.** inactive

**Q.** What about the “fold change (FC)” value (Vaccinia virus WR [7]) of the same molecule?
**A.** 85

**Q.** And the Activity (Vaccinia virus WR [8])?
**A.** inactive
